The record followed here is patent US5635608A, “α-carboxy caged compounds” (Molecular Probes, Inc., priority 1994, dated 1997).

For the test, the system named is whole neuron. Description: Release of a caged neurotransmitter in situ: whole-cell current of a neuron before and on photolysis. The format is cell-based. The text has this:
FIG. 2: The photolysis of a caged probe in situ, as described in Example 15.
A whole neuron is bathed in a solution of γ-(α-carboxy o-nitrobenzyl)-caged glutamic acid (3), as described in Example 1. The whole-cell current is then monitored as the neuron is photolyrically illuminated at 343 nm. […] This indicates both that the uncaging of a CNB-caged probe is extremely rapid, but also verifies that the caged neurotransmitter is inert in situ until uncaged.

On to `N[C@@H](CCC(=O)OC(C(=O)O)c1ccccc1[N+](=O)[O-])C(=O)O` (stereo partly drawn) [Compound 3, L-Glutamic Acid, γ-(α-carboxy-o-nitrobenzyl) ester], for which the “whole-cell current on photolytic illumination” value (illumination at 343 nm, begun at time=0 ms, FIG. 2) is given as “increases rapidly”. Besides, the “activity of the caged neurotransmitter in situ before uncaging (whole-cell current)” value (whole neuron bathed in solution of caged glutamic acid, before illumination) was “inert”.
